From the NIST ThermoML archive (doi:10.1021/je030226s)
Numbers after ± are expanded uncertainties.

Assays:
[1] = xn = mol fraction of the nth substance listed; settings: 101.32 kPa, Liquid
[2] = refractive index (Na D-line) (dimensionless); xn = mol fraction of the nth substance listed; settings: 101.32 kPa, Liquid

CCCCCl [1-chlorobutane] + CCCO
Settings | mass density, 288.15 K [kg/m3] | mass density, 298.15 K [kg/m3] | mass density, 308.15 K [kg/m3] | refractive index, 288.15 K | refractive index, 298.15 K | refractive index, 308.15 K | viscosity, 288.15 K [mPa·s] | viscosity, 298.15 K [mPa·s] | viscosity, 308.15 K [mPa·s]
[1], x2 = 0 | 892.2 ± 0.6 | 881 ± 0.7 | 869.7 ± 0.7 | – | – | – | 0.472 ± 0.009 | 0.423 ± 0.008 | 0.382 ± 0.008
[1], x2 = 0.05 | 888.3 ± 0.6 | 877.2 ± 0.7 | 866 ± 0.7 | – | – | – | 0.473 ± 0.009 | 0.426 ± 0.008 | 0.384 ± 0.008
[1], x2 = 0.1 | 884.9 ± 0.6 | 873.8 ± 0.7 | 862.6 ± 0.7 | – | – | – | 0.495 ± 0.009 | 0.44 ± 0.008 | 0.395 ± 0.008
[1], x2 = 0.2 | 878.2 ± 0.7 | 867.3 ± 0.7 | 856.2 ± 0.7 | – | – | – | 0.525 ± 0.009 | 0.461 ± 0.009 | 0.409 ± 0.008
[1], x2 = 0.3 | 871.2 ± 0.7 | 860.5 ± 0.7 | 849.7 ± 0.8 | – | – | – | 0.587 ± 0.01 | 0.511 ± 0.009 | 0.447 ± 0.008
[1], x2 = 0.4 | 864 ± 0.7 | 853.5 ± 0.7 | 842.9 ± 0.8 | – | – | – | 0.672 ± 0.01 | 0.576 ± 0.009 | 0.498 ± 0.009
[1], x2 = 0.5 | 856.3 ± 0.7 | 846.1 ± 0.8 | 835.8 ± 0.8 | – | – | – | 0.795 ± 0.011 | 0.67 ± 0.01 | 0.572 ± 0.009
[1], x2 = 0.6 | 848.1 ± 0.8 | 838.3 ± 0.8 | 828.3 ± 0.8 | – | – | – | 0.965 ± 0.013 | 0.802 ± 0.011 | 0.673 ± 0.01
[1], x2 = 0.7 | 839.2 ± 0.8 | 829.8 ± 0.8 | 820.3 ± 0.8 | – | – | – | 1.202 ± 0.015 | 0.977 ± 0.013 | 0.804 ± 0.011
[1], x2 = 0.8 | 829.6 ± 0.8 | 820.7 ± 0.8 | 811.5 ± 0.9 | – | – | – | 1.503 ± 0.018 | 1.206 ± 0.015 | 0.989 ± 0.013
[1], x2 = 0.9 | 819.2 ± 0.8 | 810.7 ± 0.9 | 802 ± 0.9 | – | – | – | 1.94 ± 0.023 | 1.531 ± 0.018 | 1.229 ± 0.015
[1], x2 = 0.95 | 813.5 ± 0.9 | 805.3 ± 0.9 | 796.9 ± 0.9 | – | – | – | 2.2 ± 0.026 | 1.729 ± 0.021 | 1.375 ± 0.017
[2], x2 = 0 | – | – | – | 1.4045 ± 0.0006 | 1.3993 ± 0.0006 | 1.3941 ± 0.0006 | – | – | –
[2], x2 = 0.05 | – | – | – | 1.4036 ± 0.0006 | 1.3984 ± 0.0006 | 1.3931 ± 0.0006 | – | – | –
[2], x2 = 0.1 | – | – | – | 1.4028 ± 0.0006 | 1.3976 ± 0.0006 | 1.3923 ± 0.0006 | – | – | –
[2], x2 = 0.2 | – | – | – | 1.4013 ± 0.0006 | 1.3962 ± 0.0006 | 1.3909 ± 0.0006 | – | – | –
[2], x2 = 0.3 | – | – | – | 1.3998 ± 0.0006 | 1.3948 ± 0.0006 | 1.3895 ± 0.0006 | – | – | –
[2], x2 = 0.4 | – | – | – | 1.3984 ± 0.0006 | 1.3934 ± 0.0006 | 1.3882 ± 0.0006 | – | – | –
[2], x2 = 0.5 | – | – | – | 1.3968 ± 0.0006 | 1.3919 ± 0.0006 | 1.3869 ± 0.0006 | – | – | –
[2], x2 = 0.6 | – | – | – | 1.3952 ± 0.0006 | 1.3904 ± 0.0006 | 1.3855 ± 0.0006 | – | – | –
[2], x2 = 0.7 | – | – | – | 1.3934 ± 0.0006 | 1.3888 ± 0.0006 | 1.384 ± 0.0006 | – | – | –
[2], x2 = 0.8 | – | – | – | 1.3914 ± 0.0006 | 1.387 ± 0.0006 | 1.3824 ± 0.0006 | – | – | –
[2], x2 = 0.9 | – | – | – | 1.3892 ± 0.0006 | 1.385 ± 0.0006 | 1.3807 ± 0.0006 | – | – | –
[2], x2 = 0.95 | – | – | – | 1.3881 ± 0.0006 | 1.384 ± 0.0006 | 1.3798 ± 0.0006 | – | – | –
